Patent US7390508B2, “Use of xenon with hypothermia for treating neonatal asphyxia” (Protexeon Limited, priority 2003, dated 2008)
Where “and” joins values, the source holds several entries; their conditions need not be identical. Identical values can stand only once.

Assays:
[1] = xenon dissolved or dispersed in lipid emulsion; assay type: physicochemical; conditions: 20° C. and normal pressure
Description: It has been established that appreciable amounts of xenon maybe added to a lipid emulsion. Even by the simplest means, at 20° C. and normal pressure, xenon can be dissolved or dispersed in concentrations of 0.2 to 10 ml or more per ml of emulsion. The concentration of dissolved gas is dependent on a number of factors, including temperature, pressure and the concentration of lipid.

[2] = test system: Seven day old postnatal Sprague-Dawley rats; assay: Neonatal asphyxia model, xenon during or 2 h after hypoxia (Example 1); assay type: in vivo, rat
Description: Seven day old postnatal Sprague-Dawley rats underwent right common carotid artery ligation under surgical anaesthesia (1%-1.5% isoflurane in pure oxygen). After ligation, the animals were returned to their mothers and placed in a specially designed area with constant of room temperature (23° C.) and humidity (48%). One hour after surgery, neonatal rats were placed in specially designed chamber with 8% oxygen combined with 0, 20, 40, 60 or 70% Xenon (with nitrogen making up the balance) for 90 min at 37° C. (temperature kept by water bath running outside chambers). At post-experimental day 7, rats (14 day old) were killed and their brains removed. The ratio of right hemisphere weight against left (R/L ratio) was calculated. Rat pups in some groups were allowed to live up to 30 days of postnatal age, at which time their neuromotor function and co-ordination were assessed with established protocols (Neuromotor testing and Rotarod testing).
The concentration-dependence of xenon neuroprotection (ratio right hemisphere weight/left against xenon concentration) is shown in FIG. 4. […] Control animals were subjected to carotid ligation but no hypoxia was given. Results are mean±SEM (n=5−8). * P<0.01 vs 8% O2.
At postnatal day 7 the right carotid artery was ligated and rat pups were exposed to a hypoxic environment (8% oxygen+70% xe and balance with nitrogen) for 90 min. Thirty days after the insult, rats were evaluated for neuromotor function (A) using a panel that included assays of prehensile traction, strength, and balance beam performance (graded on a 0-9 scale) and (B) balance on a Rotarod, a standard test of balance and neuromotor function. The data point from an individual rat is the sum of three tests. The horizontal bars indicate the median for each group.
The neuroprotective effect (ratio of right hemisphere/left) observed with N2 and xenon respectively is shown in FIG. 6, when xenon is administered 2 hours post HI insult. […]

[3] = test system: neuronal cultures; assay: oxygen-glucose deprivation (OGD)-induced lactate dehydrogenase (LDH) release in neuronal cultures; assay type: cell-based; conditions: for ED50 for xenon, OGD-induced LDH release: 75 minutes OGD, 6 hours of recovery, xenon concentration % atm, mean +/- SEM
Description: The effect of mild hypothermia on the neuroprotective effect of xenon (LDH release against xenon concentration, % atm) is shown in FIG. 7. […] Cooling by 4 degrees greatly enhances the potency of xenon in blocking LDH release. […] (red), or at 33° C. (blue). […] Neuronal injury is expressed as a percentage of the maximal LDH release after 75 minutes of OGD and 6 hours of recovery in the absence of either xenon or hypothermia. Points represent mean values, with error bars indicating standard errors.
From the slope of such a plot the enthalpy change of the process can be calculated, its size being a measure of the temperature dependence. The data in red show the effect of temperature on LDH release in the absence of xenon. The reduction of release as the temperature is reduced is expected but modest. […] Hypothermia therefore appears to greatly enhance the neuroprotective effects of xenon.

[4] = test system: p7 Sprague-Dawley rat pups; assay: 7-day-old rat model of focal HI, treatment 4 h post-insult, cresyl violet histology of apoptotic, necrotic and viable cells (Example 2); assay type: in vivo
Description: p7 Sprague-Dawley rat pups (weighing between 10 and 14 g) from Harlan, U.K. were subjected to a previously described model of HI injury (Levine, 1960; Rice et al, 1981). In brief, rat pups were anaesthetised with 2% isoflurane before undergoing permanent unilateral ligation of the right common carotid artery, using a midline neck incision and 5.0 silk suture. Once surgery was complete, pups recovered from the anaesthesia and were then returned to the dam until the time of experimentation.
1 hr after surgery, pups were exposed to hypoxia by placing them into purpose-built, airtight chambers that were partially submerged in a 37° C. water bath (FIG. 9). […] Hypoxia was induced by a continuous flow of humidified 8% oxygen, balanced with nitrogen, and this mixture was monitored every 15 minutes by a Datex Ohmeda (Bradford, U.K.). (All gases were supplied by BOC.)
Following HI, pups were returned to the dam for 4 hrs to recover, after which time they were subjected to 90 minutes of one of the experimental interventions below. […] No significant difference existed between the two time periods and thus 4 h post-insult was chosen as the time to apply the intervention, as it was thought to be the most clinically relevant.
Pups were returned to their mothers until sacrifice at 16, 24 and 48 h following treatment (Northington et al, 2001) (FIG. 10).
The same experimental paradigm was followed for treatment with xenon, but instead of hypothermia, the water bath was maintained at 37° C. and the gas mixture was changed to 25% oxygen and 75% xenon for 90 minutes. Gas was delivered into a purpose-built, closed system to minimise xenon leakage (FIG. 9). Once again, the pups were returned to their mothers until sacrifice.
In the combination paradigm, the rats underwent both hypothermia and xenon concurrently for 90 minutes. Again, the pups were placed in airtight chambers, but on this occasion, their temperatures were maintained at 35° C. and the gas mixture consisted of 25% oxygen, only 20% xenon and balanced nitrogen. This temperature and xenon concentration was shown in preliminary experiments, to confer no neuroprotective benefit to the developing brain when used independently. Thus, by using these values, any neuroprotective benefit at all is indicative of synergy between the two agents. Following treatment, pups were returned to their mothers until sacrifice.
Neuronal injury was assessed by histological analysis of paraffin brain slices stained with cresyl violet. Cresyl violet is a basic stain that binds to acidic components of neuronal cytoplasm such as RNA-rich ribosomes, and also the nuclei and nucleoli of nerve cells.
Each experimental group consisted of three time groups (16, 24, 48 h), and each time group contained three animals, (thus there were nine animals in total for each experimental group). Three slides per animal were chosen from the area of the brain that was −3.6 mm from the bregma (FIG. 11). Slides were then sorted into time groups and the examiner was blinded to the intervention.
Two areas from the ipsilateral side of each brain were analysed using a BX60 light microscope (Olympus, Southall, U.K.)—one in the cortex and one in the gyrus of the hippocampus (FIG. 11). A 40× objective lens with a grid was used to count the total number of cells that appeared in the grid. Cells were scored as either viable, apoptotic, or necrotic based on their morphological appearance, and the percentage of each cell type was noted down for each of the brain areas. An Axiocam digital camera (Zeiss, Göttingen, Germany) was used along with the microscope to take photomicrographs of the brain slices.
The criteria for assigning cells to each category was as follows (FIG. 12): • 1. Cells undergoing either type of cell death (apoptosis or necrosis) took up the cresyl violet stain more intensely than viable cells, which were regularly shaped with pale cytoplasm, and a clearly visible, darker nucleus. • 2. […]

[5] = 20% xenon alone, 37° C., cortex, 16 h, mean±SD (n=3)
[6] = 75% xenon, 37° C., 90 min, cortex, 16 h, mean±SD (n=3)
[7] = 75% xenon, 37° C., 90 min, gyrus, 16 h, mean±SD (n=3)
[8] = combination 20% xenon + 35° C. hypothermia, cortex, 16 h, mean±SD (n=3)

[Xe] [xenon]
concentration of xenon dissolved or dispersed in lipid emulsion [1]: 0.2 to 10 ml per ml of emulsion | concentration-dependence of xenon neuroprotection (ratio right hemisphere weight/left) ([2]; 0, 20, 40, 60 or 70% xenon with 8% oxygen for 90 min at 37° C., brains at 14 days): Neuroprotection is evident even at sub-anaesthetic concentrations | neuroprotective effect (ratio of right hemisphere/left) ([2]; 70% Xe+30% O2 for 90 min, given 2 hours after the end of the hypoxic period): effective in providing neuroprotection | gross anatomical appearance of brain slices ([2]; 70% xenon breathed during the 90 min hypoxic period): look close to normal | temperature dependence of LDH release (van't Hoff plot) ([3]; 12.5% xenon present): very large and unexpected | ED50 for xenon, OGD-induced LDH release ([3]; 33° C.): 11.5+/−2.0% | ED50 for xenon, OGD-induced LDH release ([3]; 37° C.): 35.9+/−2.15% | neuroprotection ([4]; 20% xenon alone, 37° C.): no neuroprotective effect | percentage of apoptosis [4, 5]: 36%±5.7% and 35.8%±5.7% | percentage of viability [4, 5]: 51%±7.8% | apoptosis (percentage of total cell number) [4, 6]: 8.5%±1.6% | viable cell count (percentage of total cell number) [4, 6]: 80.6%±0.2% | apoptosis (percentage of total cell number) [4, 7]: 13.9%±2.4% | viable cell count (percentage of total cell number) [4, 7]: 77.1%±3.3% | anti-necrosis ([4]; 75% xenon, 16 and 24 h groups): not anti-necrotic | anti-apoptosis compared to positive control animals ([4]; 75% xenon, 24 and 48 h groups, cortex and gyrus): statistically significant anti-apoptosis | percentage of viable cells vs. positive controls ([4]; 75% xenon, 24 h, cortex and gyrus): significant increase in the percentage of viable cells | necrosis (percentage of total cell number) ([4]; 75% xenon, cortex, 48 h, mean±SD (n=3)): 10.7%±0.4% | anti-necrosis ([4]; 75% xenon, gyrus, 48 h): not however anti-necrotic | neuroprotection ([4]; combination 20% xenon + 35° C. hypothermia, both areas of the brain, 16, 24 and 48 h): profound synergistic neuroprotection | apoptosis (percentage of total cell number) [4, 8]: 7.2%±2% | viable cells (percentage of total cell number) [4, 8]: 82.3%±4.9% | type of protection ([4]; combination 20% xenon + 35° C. hypothermia, gyrus, 24 h): anti-necrotic as well as anti-apoptotic protection
